Measured values: ChEMBL document CHEMBL3045427, “Synthesis, anticonvulsant and neurotoxic activity of some new 2,5-disubstituted-1,3,4-oxadiazoles” (Med Chem Res, 2011)
Activity calls are given as the source filed them. The calls are words filed in the database; no cut-off is given here.

Tests used:
Mus musculus [1] = assay: Anticonvulsant activity in ip dosed Mus musculus albino (mouse) assessed as protection against subcutaneous metrazole-induced seizure after 0.5 hr; format: functional; settings: read-out: MED
Mus musculus [2] = assay: Neurotoxicity in ip dosed Mus musculus albino (mouse) assessed as minimal motor impairment after 4 hr by rotarod test; format: toxicity, organism-based; settings: in vivo
Mus musculus [3] = assay: Anticonvulsant activity in ip dosed Mus musculus albino (mouse) assessed as protection against maximal electroshock-induced seizure after 0.5 hr; format: functional; settings: read-out: MED
Mus musculus [4] = assay: Anticonvulsant activity in ip dosed Mus musculus albino (mouse) assessed as protection against subcutaneous metrazole-induced seizure after 4 hr; format: functional; settings: read-out: MED
Mus musculus [5] = assay: Anticonvulsant activity in ip dosed Mus musculus albino (mouse) assessed as protection against maximal electroshock-induced seizure after 4 hr; format: functional; settings: read-out: MED
Mus musculus [6] = assay: Neurotoxicity in ip dosed Mus musculus albino (mouse) assessed as minimal motor impairment after 0.5 hr by rotarod test; format: toxicity, organism-based; settings: in vivo
Mus musculus [7] = assay: Anticonvulsant activity in Mus musculus albino (mouse) assessed as protection against subcutaneous metrazole-induced seizure at 300 mg/kg, ip after 4 hr; format: functional, organism-based; set-up: dose 300 mg/kg
Mus musculus [8] = assay: Anticonvulsant activity in Mus musculus albino (mouse) assessed as protection against subcutaneous metrazole-induced seizure at 300 mg/kg, ip after 0.5 hr; format: functional, organism-based; set-up: dose 300 mg/kg
Mus musculus [9] = assay: Anticonvulsant activity in Mus musculus albino (mouse) assessed as protection against maximal electroshock-induced seizure at 300 mg/kg, ip after 0.5 hr; format: functional, organism-based; set-up: dose 300 mg/kg
Mus musculus [10] = assay: Neurotoxicity in Mus musculus albino (mouse) assessed as minimal motor impairment at 300 mg/kg, ip after 0.5 hr by rotarod test; format: toxicity, organism-based; set-up: dose 300 mg/kg, route intraperitoneal; settings: in vivo
Mus musculus [11] = assay: Neurotoxicity in Mus musculus albino (mouse) assessed as minimal motor impairment at 300 mg/kg, ip after 4 hr by rotarod test; format: toxicity, organism-based; set-up: dose 300 mg/kg, route intraperitoneal; settings: in vivo
Mus musculus [12] = assay: Anticonvulsant activity in Mus musculus albino (mouse) assessed as protection against maximal electroshock-induced seizure at 300 mg/kg, ip after 4 hr; format: functional, organism-based; set-up: dose 300 mg/kg

| Compound | minimal effective dose (Mus musculus [1]) | MTC (Mus musculus [2]) | minimal effective dose (Mus musculus [3]) | minimal effective dose (Mus musculus [4]) | minimal effective dose (Mus musculus [5]) | MTC (Mus musculus [6]) | Activity (Mus musculus [7]) | Activity (Mus musculus [8]) | Activity (Mus musculus [9]) | Activity (Mus musculus [10]) | Activity (Mus musculus [11]) | Activity (Mus musculus [12]) |
| --- | --- | --- | --- | --- | --- | --- | --- | --- | --- | --- | --- | --- |
| NC(=O)N1c2ccccc2C=Cc2ccccc21 [CARBAMAZEPINE] | 100 mg/kg | 300 mg/kg | 30 mg/kg | 300 mg/kg | 100 mg/kg | 100 mg/kg | – | – | – | – | – | – |
| O=C1NC(=O)C(c2ccccc2)(c2ccccc2)N1 [PHENYTOIN] | – | 100 mg/kg | 30 mg/kg | – | 30 mg/kg | 100 mg/kg | inactive | inactive | – | – | – | – |
| COc1ccc(-c2nnc(NC(=O)N/N=C\C=C(\C)CCC=C(C)C)o2)cc1 | – | – | – | – | 300 mg/kg | – | inactive | inactive | inactive | Non-toxic | Non-toxic | – |
| CC(C)=CCC/C(C)=C\C=N/NC(=O)Nc1nnc(-c2ccccc2)o1 | – | – | – | – | 300 mg/kg | – | inactive | inactive | inactive | Non-toxic | Non-toxic | – |
| CC(C)=CCC/C(C)=C\C=N/c1nnc(-c2ccccc2)o1 | 300 mg/kg | 300 mg/kg | 30 mg/kg | 300 mg/kg | 100 mg/kg | 300 mg/kg | – | – | – | – | – | – |
| CC(C)=CCC/C(C)=C\C=N/NC(=O)Nc1nnc(-c2ccc(Cl)cc2)o1 | – | – | 30 mg/kg | – | – | – | inactive | inactive | – | Non-toxic | Non-toxic | inactive |
| CC(C)=CCC/C(C)=C\C=N/NC(=O)Nc1nnc(-c2ccc(C)cc2)o1 | – | – | – | – | 300 mg/kg | – | inactive | inactive | inactive | Non-toxic | Non-toxic | – |
| CC(C)=CCC/C(C)=C\C=N/c1nnc(-c2ccc(C)cc2)o1 | – | – | – | – | – | – | inactive | inactive | inactive | Non-toxic | Non-toxic | inactive |
| CC(C)=CCC/C(C)=C\C=N/c1nnc(-c2ccc(Cl)cc2)o1 | – | – | – | 300 mg/kg | 300 mg/kg | – | – | inactive | inactive | Non-toxic | Non-toxic | – |
| COc1ccc(-c2nnc(/N=C\C=C(\C)CCC=C(C)C)o2)cc1 | – | – | – | – | – | – | inactive | inactive | inactive | Non-toxic | Non-toxic | inactive |
